{"source": "patent US9636343B2", "about": "“Composition for preventing and treating acetaminophen inducing hepatotoxicity containing TNP(N2-(m-Trifluorobenzyl), N6-(p-nitrobenzyl)purine) as an effective ingredient” (Korea Advanced Institute of Science and Technology, priority 2015, dated 2017)", "key": {"[1]": {"tested_on": "human embryonic stem cell-derived liver cells", "assay": "Acetaminophen caused apoptosis (cell survival rate, trypan blue) in human embryonic stem cell-derived liver cells", "assay_type": "cell-based", "conditions": "hESC-derived liver cells; acetaminophen 25 mM together with TNP 100 μM, 18 hours; FIG. 2", "experimental": "Particularly, CHA-hESC cell line was cultured in the conditioned medium with feeder-free system for 3 days to be confluent. Upon completion of the culture, the hESC cells were cultured in RPMI-1640 (Hyclone, USA) supplemented with 50 ng/ml of Activin A (Peprotech, USA) for 5 days to induce the differentiation. The differentiated cells were cultured in the hepatocyte culture medium (HCM; Lonza, USA) supplemented with 30 ng/ml of fibroblast growth factor 4 (Peprotech) and 20 ng/ml of bone morphogenetic protein 2 (BMP2; Peprotech) for 5 days. Then, the cells were further cultured in the hepatocyte culture medium supplemented with 20 ng/ml of hepatocyte growth factor (HGF; Peprotech) for another 5 days to induce the differentiation of hESC into hepatocytes. The differentiated hepatocytes were cultured in the hepatocyte culture medium supplemented with 10 ng/ml of oncostatin M (R&D Systems, USA) and 0.1 μM of dexamethasone (Sigma) for 5 days to induce maturation of the hepatocytes. At last, the mature hepatocytes were obtained. […]\nParticularly, the liver cells on the 19th day from the differentiation from human stem cells were distributed in a 6 well plate at the concentration of 90% each well. […] This experiment was performed in triplicate and the cell survival rate was analyzed based on the results. […] The maximum limits of significance were determined as p<0.05."}, "[2]": {"tested_on": "mouse derived liver cells", "assay": "Acetaminophen caused apoptosis (cell survival rate) in mouse derived liver cells", "assay_type": "cell-based", "conditions": "acetaminophen 25 mM together with TNP 100 μM, 18 hours, FIG. 3", "description": "Particularly, the male C57BL/6J mouse at 10˜12 weeks was anesthetized by administrating Avertin via intraperitoneal injection, and the abdomen was opened. 24 gauge catheter was inserted in the portal vein to perfuse with a perfusion solution (1.42 M Nacl, 0.067 M Kcl, 0.1 M HEPES PH 7.4, 0.05 M EGTA). Then, a digestion solution comprising collagenase (Worthington, USA) was circulated. After the liver cells were digested, the mesenteric membrane was peeled off to separate liver cells, followed by filtering with nylon mesh. The filtrate was centrifuged at 100×g for 3 minutes. The supernatant was discarded and the precipitated liver cells were suspended in HBSS buffer (Hanks' Balanced salt solution, WelGene), followed by centrifugation. The precipitated liver cells were centrifuged at 2400 rpm for 10 minutes in Percol solution (autoclaved percoll (Sigma), 10×PBS, 1 M HEPES pH 7.4). The supernatant was discarded and the precipitated liver cells were suspended in HBSS buffer (Hanks' Balanced salt solution, WelGene), followed by centrifugation again at 100×g. […]\nParticularly, the mouse derived liver cells were distributed in a 6 well plate at the concentration of 100% each well. The cell survival rate was calculated by the same manner as described in Experimental Example 1. […] The maximum limits of significance were determined as p<0.05."}, "[3]": {"tested_on": "human hepatoma cell line HepG2", "assay": "Acetaminophen caused apoptosis (cell survival rate) in human hepatoma cell line HepG2", "assay_type": "cell-based", "conditions": "acetaminophen 25 mM together with TNP 100 μM, 18 hours, FIGS. 4 and 5", "experimental": "The human hepatoma cell line HepG2 was distributed in a 6 well plate precoated with gelatin at the density of 1×10^6 cells/ml, followed by culture for 24 hours for cell adhesion. The culture medium herein was DMEM (Biowest) supplemented with 10% FBS, 10 nM dexamethasone, 10 nM insulin, and penicillin/streptomycin (100 μg/ml). The cells were cultured in a 37° C. incubator under the control of temperature and humidity with supplying a mixed gas containing CO2 by 5%.\nThe changes in acetaminophen caused apoptosis according to the treatment of TNP were investigated in the human hepatoma cell line HepG2 cultured by the same manner as described in Example 3.\nParticularly, the human hepatoma cell line HepG2 was distributed in a 6 well plate at the concentration of 90% each well. The cell survival rate was calculated by the same manner as described in Experimental Example 1. All the statistic treatments in this invention were presented as mean±SD and the statistic analysis was performed by using Student's t-test. The maximum limits of significance were determined as p<0.05."}, "[4]": {"tested_on": "reduced glutathione (GSH) in mouse derived liver cells", "assay": "Intracellular reduced glutathione (GSH) level, GSH-Glo Glutathione Assay, in mouse derived liver cells", "assay_type": "cell-based", "conditions": "FIG. 6", "experimental": "The metabolizing activity of liver cells on acetaminophen according to the treatment of TNP was investigated.\nParticularly, the level of the reduced glutathione (GSH) in the mouse derived liver cells treated with acetaminophen and TNP by the same manner as described in Experimental Example 2 was measured. The measurement of the reduced glutathione was performed by using GSH-Glo Glutathione Assay kit (Promega) with Tristar2 LB 942 plate reader."}, "[5]": {"tested_on": "phosphorylated JNK", "assay": "JNK phosphorylation (Western blotting) in mouse derived liver cells", "assay_type": "cell-based", "conditions": "acetaminophen together with TNP, FIG. 7", "experimental": "(§1) The regulation of response against stress caused by acetaminophen in liver cells according to the treatment of TNP was investigated.\nParticularly, the mouse derived liver cells treated with acetaminophen and TNP by the same manner as described in Experimental Example 2 were obtained. Cell extract was prepared for protein assay. Then, SDS-PAGE and Western blotting were performed. The cells were lysed in 10 ml of SDS buffer (50 mM Tris-HCl, 1% IGEPAL CA-630, 0.25% deoxycholic acid, 150 mM NaCl, 1 mM ethylene-diamine tetra acetic acid, 1 mM NaF, and 0.1% sodium dodecyl sulfate, pH 7.4) containing protease inhibitor cocktail (Complete Mini, Roche, Germany). The cell lysate was placed in ice for 20 minutes, followed by centrifugation at 4° C., at 13000 rpm, for 10 minutes. Upon completion of the centrifugation, the protein in the supernatant was quantified (Bio-Rad Laboratories, USA). 50 μg of the protein was loaded for SDS-PAGE (SDS-polyacrylamide gel electrophoresis). The electrophoresed protein was transferred onto Immobilon-P transfer membrane (Millipore Corporate, USA) by using electroblotting. The membrane was then loaded in TBS (Tris-buffered saline) containing 0.1% Tween 20 and 10% milk powder, followed by blocking for 1 hour. […] The activity was analyzed by using Image J software (version 1.37, NIH, USA)."}, "[6]": {"tested_on": "phosphorylated JNK", "assay": "JNK phosphorylation (Western blotting) in human hepatoma cell line HepG2", "assay_type": "cell-based", "conditions": "acetaminophen together with TNP, FIG. 8", "experimental": "as §1\nParticularly, the human hepatoma cell line HepG2 treated with acetaminophen and TNP by the same manner as described in Experimental Example 3 was obtained. Cell extract was prepared for protein assay. Then, SDS-PAGE and Western blotting were performed by the same manner as described in Experimental Example 5."}, "[7]": {"tested_on": "male C57BL/6J mouse", "assay": "Individual survival rate in acetaminophen treated mouse model", "assay_type": "in vivo", "conditions": "acetaminophen 500 mg/kg orally, then TNP 10 mg/kg intraperitoneal, FIG. 9", "experimental": "The inventors investigated whether or not TNP had the activity of protecting liver cells from the toxicity caused by acetaminophen in an animal model.\nParticularly, the male C57BL/6J mouse at 8˜10 weeks was orally administered with 500 mg/kg of acetaminophen (Sigma) dissolved in water. Then, the mouse was administered with 10 mg/kg of TNP (Calbiocham) dissolved in olive oil (Sigma) via intraperitoneal injection, followed by investigation of individual survival rate. Statistical analysis was performed by Kaplan-Meier survival analysis, and the maximum limit of the significance was determined as p<0.05."}, "[8]": {"tested_on": "male C57BL/6J mouse", "assay": "Liver toxicity in acetaminophen treated mouse model: histopathological analysis and blood analysis (AST and ALT)", "assay_type": "in vivo", "conditions": "acetaminophen 500 mg/kg orally, TNP 10 mg/kg intraperitoneal, 6 hours later", "experimental": "(§2) To investigate the preventing effect of TNP on the acetaminophen caused liver toxicity in the animal model of Example 7, tissues, blood, and JNK phosphorylation were analyzed.\n(§3) Particularly, acetaminophen and TNP were injected to the male mouse by the same manner as described in Example 7. 6 hours later, the liver was extracted from the mouse, followed by histopathological analysis, blood analysis (AST and ALT), and stress signaling activity (JNK) analysis. For the blood analysis, a blood sample was obtained from orbit of the mouse. The blood sample was centrifuged at 13,000 rpm for 10 minutes to obtain serum. AST and ALT analysis was performed (Idexx VetTest 8008 chemistry analyzer) with 100 μl of the serum obtained above. To investigate the stress signaling activity, the liver tissues extracted from the liver taken out above were loaded in RIPA medium (1 M tris-Cl (PH7.4), 1 M NaCl, 0.5 M EDTA, NP-40, 10% sodium deoxycholate, 10% SDS), followed by lysis with a homogenizer. After the centrifugation, the supernatant was collected, followed by SDS-PAGE and Western blotting. The phosphorylated JNK and the total JNK were quantified by Western blotting by the same manner as described in Example 5."}, "[9]": {"tested_on": "phosphorylated JNK", "assay": "Stress signaling activity (JNK phosphorylation) in liver tissue of acetaminophen treated mouse model", "assay_type": "in vivo", "conditions": "acetaminophen 500 mg/kg orally, TNP 10 mg/kg intraperitoneal, 6 hours later, FIG. 12", "experimental": "as §2, §3"}}}
{"smiles": "O=[N+]([O-])c1ccc(CNc2nc(NCc3cccc(C(F)(F)F)c3)nc3[nH]cnc23)cc1", "note": "[TNP, N2-(m-Trifluorobenzyl), N6-(p-nitrobenzyl)purine]", "values": [{"measurement": "apoptosis of liver cells caused by acetaminophen", "setting": "[1]", "value": "significantly suppressed"}, {"measurement": "apoptosis of liver cells caused by acetaminophen", "setting": "[2]", "value": "significantly suppressed"}, {"measurement": "apoptosis of liver cells caused by acetaminophen", "setting": "[3]", "value": "significantly suppressed"}, {"measurement": "decrease of the reduced glutathione caused by acetaminophen", "setting": "[4]; acetaminophen together with TNP", "value": "back to increase"}, {"measurement": "reduced glutathione concentration in the liver cells", "setting": "[4]; treatment of TNP alone", "value": "increased"}, {"measurement": "phosphorylated JNK signal increased by the acetaminophen caused stress response", "setting": "[5]", "value": "significantly suppressed"}, {"measurement": "phosphorylated JNK signal increased by the acetaminophen caused stress response", "setting": "[6]", "value": "significantly suppressed"}, {"measurement": "individual survival rate", "setting": "[7]", "value": "effect of protecting a mouse from the acetaminophen caused liver toxicity"}, {"measurement": "level of ALT (liver toxicity serum index)", "setting": "[8]; mouse serum, FIG. 11", "value": "significantly decreased"}, {"measurement": "level of AST (liver toxicity serum index)", "setting": "[8]; mouse serum, FIG. 11", "value": "significantly decreased"}, {"measurement": "necrosis in liver tissue (histopathological analysis)", "setting": "[8]; mouse, FIG. 10", "value": "only minor necrosis"}, {"measurement": "increase of phosphorylated JNK signal in liver tissue", "setting": "[9]", "value": "significantly suppressed"}]}
